# Results taken from patent US20220112225A1, “ANANDAMIDE COMPOUNDS” (priority 2019, published 2022).
# Molecular target: T1, hMfsd2a (Homo sapiens, UniProt Q8NA29)
# T1 construct: expressed in transfected cells; host or cells: HEK293
# T1 sequence (Q8NA29 1-530 isoform Q8NA29-2): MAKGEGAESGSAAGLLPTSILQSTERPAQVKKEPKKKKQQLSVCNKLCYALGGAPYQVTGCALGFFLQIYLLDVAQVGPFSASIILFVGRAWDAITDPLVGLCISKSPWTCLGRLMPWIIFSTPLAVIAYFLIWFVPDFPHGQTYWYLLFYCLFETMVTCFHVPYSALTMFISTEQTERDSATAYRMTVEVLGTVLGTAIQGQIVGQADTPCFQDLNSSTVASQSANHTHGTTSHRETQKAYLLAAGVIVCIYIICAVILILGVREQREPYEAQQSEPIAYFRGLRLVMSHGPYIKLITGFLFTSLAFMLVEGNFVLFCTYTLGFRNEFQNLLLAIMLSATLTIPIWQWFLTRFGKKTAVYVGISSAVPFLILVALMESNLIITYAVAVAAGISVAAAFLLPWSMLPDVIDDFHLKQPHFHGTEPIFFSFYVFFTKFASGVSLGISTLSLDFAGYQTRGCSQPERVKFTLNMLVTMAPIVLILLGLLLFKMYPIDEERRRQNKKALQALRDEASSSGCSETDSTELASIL
# Assay: In vitro Mfsd2a transport, thin layer chromatography (TLC) analysis
# Format: cell-based
# Details: transfected HEK293 cells, 50 μM test compound, 1 hour, iodine and cupric acetate stain
# Protocol: The assay was conducted in a low throughput 6-well format with HEK293 cells prepared and then transfected in duplicate wells with plasmids containing either the wildtype (WT) version of hMfsd2a, the D97A mutant version, or an empty vector as control. Uptake into the ceils was assessed by both thin-layer chromatography (TLC) and ultrahigh performance liquid chromatography hyphenated mass spectrometry.
# HEK293 cells were seeded at 6.25×10^5 per 6-well in 2 mL of DMEM with 10% FBS and 1% penicillin-streptomycin (P/S) media (Sigma) and incubated overnight at 37° C. in 5% CO2. Cells were checked for confluency the next morning. On a per well basis the following lipid mix was generated, 6 μL of Lipofectamine 2000 was added dropwise to 200 μL of OptiMEM, this was left to stand for 5 minutes at room temperature (RT). 1 μg of hMfsd2a WT, D97A or empty plasmid was prepared in 200 μL of OptiMEM as appropriate for each well; the Lipofectamine 2000 in OptiMEM solution was then added dropwise to a total volume of 400 μL (this can be scaled to support the number of wells/plates to be assayed). This transfection preparation was then incubated at RT for 20 minutes. DMEM with 10% FBS and no P/S media was warmed to 37° C., the HEK293 plate media was changed and the cells washed carefully with 1 mL of the warmed DMEM with 10% FBS no P/S media, 1.6 mL of the warmed DMEM with 10% FBS no P/S media was then added to each well. 400 μL of the transfection preparation was then added dropwise to each well as appropriate and the plate was gently swirled in a circular motion. The plate was then incubated overnight at 37° C. in 5% CO2.
# Compound Incubation and Preparation of Analysis Samples Compound stock solutions were prepared in a 12% BSA in PBS solution such that a 40 μL spike into 2 ml, of plain DMEM would yield a concentration of 50 μM of test compound (the compound treated media). Remaining compound stock solution in 12% BSA in PBS was frozen at −20° C. to allow for media stability testing. The HEK293 6-well plate was removed from the incubator and the wells gently rinsed with 1 mL of plain DMEM that had been prewarmed to 37° C. 2 mL of the compound treated media was then added to each well. A 100 μL sample of the compound treated media was sampled to represent a T=0 h sample; 5 μL of this sample (the remainder was reserved and frozen in case of re-analysis being required) was diluted with 45 μL of DMEM and crashed with 50 μL MeCN in a 96-well plate which was sealed and kept on ice. The HEK293 6-well plate was then incubated at 37° C. in 5% CO2 for 1 hour, the plate was then removed from the incubator and a 100 μL sample of media taken from each well to represent a T=1 h sample; 5 μL of this sample (the remainder was reserved and frozen in case of re-analysis being required) was diluted with 45 μL of DMEM and crashed with 50 μL MeCN into the 96-well plate which was re-sealed and stored at −20° C. The remaining media was then removed from the HEK293 6-well plate, the wells were gently rinsed twice with 1 mL of 0.5% BSA in DMEM, the media was then removed and the 6-well plate allowed to dry completely at RT. 1 ml of 3:2 Hexane:Isopropanol (HIP) was added to each well in a fume cupboard and the plate allowed to stand for 30 minutes at RT without shaking. The HIP solution was then transferred to 2 mL Eppendorf tubes, and the process was repeated with a second 1 mL aliquot of HIP and the two aliquots combined. The HIP samples were then dried down under a nitrogen stream.
# Silica gel plates were prepared in a fume cupboard by initially drawing a line 1.5 cm from the bottom edge of the plate and then drawing sample lanes with a width of 1 cm and a separation of 0.5 cm between lanes. TLC buffer for phospholipids was prepared as a 31:62:7 solvent mix of Methanol:Chloroform:Ammonium Hydroxide. Plates were pre-run in a humid chamber containing 200 mL of the TLC buffer until the solvent front was 1.5 cm from the plate edge, the plate was then allowed to dry. […]
substance,measurement,value
"2-(5Z,8Z,11Z,14Z)-icosa-5,8,11,14-tetraenamidoethyl (trimethylammonio) ethylphosphate [Compound 3]",Transport via Mfsd2a: TLC band intensity in WT cells compared with D97A mutant Mfsd2a and/or empty vector cells,transported via Mfsd2a
